Data reported in the OligoGym collection.
Several values for one entry are separate records, joined by “and”; a condition that tells them apart may be missing. Equal entries are not always repeated. After the bases stand the sugars from the 5' end (letter, count) and the backbone: PS all phosphorothioate, else s phosphorothioate and o phosphodiester by linkage. Methylation of C is not given here. e = 2'-O-(2-methoxyethyl) (MOE); k = constrained ethyl (cEt); d = 2'-deoxy (DNA)

The sequences below were run against IRF4. Details: ASO, MM.1R, 0.0625 µM.
In the case of GGAACTCATAGGTGTA (sugars k3 d10 k3, PS), the target mRNA inhibition is reported as 11% and 32%. With GGCAAATTAATGCTTC (sugars k3 d10 k3, PS) the target mRNA inhibition was -5% and 17%.

Same assay, conditions: ASO, MM.1R, 0.074 µM
In the case of GGCAAATTAATGCTTC (sugars k3 d10 k3, PS), the target mRNA inhibition is reported as -9%.

Same assay, conditions: ASO, MM.1R, 0.222 µM
For GGCAAATTAATGCTTC (sugars k3 d10 k3, PS), the target mRNA inhibition was -33%.

Same assay, conditions: ASO, MM.1R, 0.25 µM
With GGAACTCATAGGTGTA (sugars k3 d10 k3, PS) the target mRNA inhibition was 26% and 42%. For GGCAAATTAATGCTTC (sugars k3 d10 k3, PS), the target mRNA inhibition was -11% and 5%.

Same assay, conditions: ASO, MM.1R, 0.666 µM
GGCAAATTAATGCTTC (sugars k3 d10 k3, PS) gave a target mRNA inhibition of 7%.

Same assay, conditions: ASO, MM.1R, 1 µM
For GCCTTCAGCGGTTTCC (sugars k3 d10 k3, PS), the target mRNA inhibition was 4%. With GCGAGTTGGCACAATT (sugars k3 d10 k3, PS) the target mRNA inhibition was 27% and 37%. With GCTAACTTACAGGACT (sugars k3 d10 k3, PS) the target mRNA inhibition was -8%. With GCTAGATTCTCCCTGC (sugars k3 d10 k3, PS) the target mRNA inhibition was -13%. With GCTAGCAGGAGCGAGA (sugars k3 d10 k3, PS) the target mRNA inhibition was -5%. For GGAACTCATAGGTGTA (sugars k3 d10 k3, PS), the target mRNA inhibition was 53% and 65%. “GGAAGTTTACACTGGA (sugars k2 d9 e3 k2, PS)” gave a target mRNA inhibition of 47%. With “GGAAGTTTACACTGGA (sugars kdddddddddkekeke, PS)” the target mRNA inhibition was 32%. “GGAAGTTTACACTGGA (sugars kkddddddddddkeke, PS)” was tested, and the target mRNA inhibition was 46%. Sequence GGAGAGGGCGACGACA (sugars k3 d10 k3, PS) has a target mRNA inhibition of -1%. Sequence GGATAACCTGAACATG (sugars k3 d10 k3, PS) has a target mRNA inhibition of 9%. Work on GGATTCCGCGCGCAGA (sugars k3 d10 k3, PS) yielded a target mRNA inhibition of 21%. With “GGCACATCAATGTTTT (sugars k2 d9 e3 k2, PS)” the target mRNA inhibition was 22% and 36%. In the case of “GGCACATCAATGTTTT (sugars kddddddddddkekek, PS)”, the target mRNA inhibition is reported as 28% and 25%. For “GGCACATCAATGTTTT (sugars kkddddddddddkeke, PS)”, the target mRNA inhibition was 9%. GGCCACCGCACGCAAG (sugars k3 d10 k3, PS) was tested, and the target mRNA inhibition was -24%. Sequence GGCCTGAGTTACCGCA (sugars k3 d10 k3, PS) has a target mRNA inhibition of 8%. For GGCGACTGCTGAAAAC (sugars k3 d10 k3, PS), the target mRNA inhibition was -10%. GGCGCGGACGCACGGA (sugars k3 d10 k3, PS) was tested, and the target mRNA inhibition was 10%. Sequence GGCTCCGCTCAACCAG (sugars k3 d10 k3, PS) has a target mRNA inhibition of 9%. With “GGGATTATATACTGGT (sugars kkdddddddddkekek, PS)” the target mRNA inhibition was 40%. GGGTTAAAGGAGTGCA (sugars k3 d10 k3, PS) showed a target mRNA inhibition of 0%. GGTATTTATAACCGGT (sugars k3 d10 k3, PS) gave a target mRNA inhibition of 10%. For GGTATTTTTCCGTTCC (sugars k3 d10 k3, PS), the target mRNA inhibition was 30%. In the case of “GGTTGGCTGGTCTTTG (sugars kddddddddddkekek, PS)”, the target mRNA inhibition is reported as 47%. In the case of “GGTTGGCTGGTCTTTG (sugars kdddddddddkekeke, PS)”, the target mRNA inhibition is reported as 26%. With “GGTTGGCTGGTCTTTG (sugars kkdddddddddkdkdk, PS)” the target mRNA inhibition was 64%. GTAAACGCAAGTCTGA (sugars k3 d10 k3, PS) showed a target mRNA inhibition of 14%. Work on GTAGGTAAGATCTCCA (sugars k3 d10 k3, PS) yielded a target mRNA inhibition of 22%. “GTAGTATGAGAAACGG (sugars kddddddddddkekek, PS)” gave a target mRNA inhibition of 46%. Work on “GTAGTATGAGAAACGG (sugars kdddddddddkekeke, PS)” yielded a target mRNA inhibition of 28%.

Same assay, conditions: ASO, MM.1R, 2 µM
With GGCAAATTAATGCTTC (sugars k3 d10 k3, PS) the target mRNA inhibition was -5%.

Same assay, conditions: ASO, MM.1R, 4 µM
In the case of GGAACTCATAGGTGTA (sugars k3 d10 k3, PS), the target mRNA inhibition is reported as 75% and 80%.

Same assay, conditions: ASO, SK-MEL-28, 4 µM
GCGAAGGCTCCTACCC (sugars k3 d10 k3, PS) was tested, and the target mRNA inhibition was -15%. GCGACTAACTCTCCTG (sugars k3 d10 k3, PS) was tested, and the target mRNA inhibition was 70%. With GCGGACACGCCCGACC (sugars k3 d10 k3, PS) the target mRNA inhibition was 15%. Work on GCGGAGCTTCCCGTTG (sugars k3 d10 k3, PS) yielded a target mRNA inhibition of 33%. With GCTACATTTCTTATGC (sugars k3 d10 k3, PS) the target mRNA inhibition was 20%. With GCTCAACCAGTTCCTC (sugars k3 d10 k3, PS) the target mRNA inhibition was 38%. Work on GCTCACAGATTAATAG (sugars k3 d10 k3, PS) yielded a target mRNA inhibition of 16%. Work on GCTCACTATTAAACAG (sugars k3 d10 k3, PS) yielded a target mRNA inhibition of -12%. GCTCACTGCTCACTAA (sugars k3 d10 k3, PS) was tested, and the target mRNA inhibition was 33%. In the case of GCTCATGCCGAACTCT (sugars k3 d10 k3, PS), the target mRNA inhibition is reported as 19%. In the case of GCTCATGGACATCTGC (sugars k3 d10 k3, PS), the target mRNA inhibition is reported as 39%. For GCTCCTGAGACAGACT (sugars k3 d10 k3, PS), the target mRNA inhibition was 56%. GCTGCTCATTTCACTG (sugars k3 d10 k3, PS) showed a target mRNA inhibition of 41%. With GCTGTGTGTCAAAGAG (sugars k4 d8 k4, PS) the target mRNA inhibition was 40%. Sequence GCTTATCAATGCCAAG (sugars k3 d10 k3, PS) has a target mRNA inhibition of 40%. Work on GCTTCTTCAATTTACA (sugars k3 d10 k3, PS) yielded a target mRNA inhibition of 45%. With GCTTTTTCAAACACTA (sugars k3 d10 k3, PS) the target mRNA inhibition was 68%. In the case of GGAAACGAGAACGCAC (sugars k3 d10 k3, PS), the target mRNA inhibition is reported as 30%.
